Source: patent US20240140991A1, “ANTIBIOTIC NATURAL PRODUCT ANALOGUES” (THE QUEEN'S UNIVERSITY OF BELFAST, priority 2021, published 2024)
Converted amounts (≈) assume the structure as drawn. Starred links: 1 amine or outer side, 2 acyl side, 3 side chain; linkers in the order of their positions; H or OH if unused. Positions of bridges follow the written chain, without caps; N, C: chain ends. Non-standard residues stand in square brackets, D forms with d. Residues, ends and D or L forms follow the SMILES beside them. ξ: configuration not given here. *: point of attachment. X1 = C[C@@H](N=[N+]=[N-])[C@H](N[*:1])C(=O)[*:2]; Octanoyl(7-Me) = CC(C)CCCCCC(=O)*; Hexanoyl(4ξ-Me) = CCC(C)CCC(=O)*; dOrn = NCCC[C@@H](N)C(=O)O; Orn = NCCC[C@H](N)C(=O)O

Test system: Escherichia coli ATCC 25922
Format: cell-based
Details: ATCC 25922
Protocol: Minimum inhibitory concentration (MIC) was determined by broth microdilution according to CLSI guidelines. Blood agar plates were inoculated with glycerol stocks of Escherichia coli ATCC 25922, E. coli ATCC 25922 MCR-1, E. coli MCR-1 (clinical isolate from Utrecht Medical Center, NL), E. coli EQAS MCR-2 (clinical isolate from Wageningen University and Research, NL), Kiebsielia pneumoniae ATCC 11228, K. pneumoniae ATCC 13883, K. pneumonia 2048 (clinical isolate from Vrije Universiteit Amsterdam Medical Center, NL), K. pneumonia JS-123 (clinical isolate from Utrecht Medical Center, NL), Acinetobacter baumannii ATCC 17961, A. baumannil ATCC 17978, A. baumannii 2018-006 (clinical isolate from Rijksinstituut voor Volksgezondheid en Milieu, NL), A. baumannii MDR (clinical isolate from Vrije Universiteit Amsterdam Medical Center, NL), Pseudomonas aeruginosa ATCC 27853, P. aeruginosa PAO1, P. aeruginosa NRZ-03961 (Reference strain from Das Nationale Referenzzentrum für gramnegative Krankenhauserreger, DE), P. aeruginosa M-120 (clinical isolate from Leiden University Medical Center, NL) and Staphylococcus aureus USA300 (clinical isolate from Texas Children's Hospitalm, USA). E. coli 25922 MCR1 was grown on LB agar supplemented with kanamycin. The inoculated agar plates were then incubated for 16 hours at 37° C. Individually grown colonies were subsequently used to inoculate 3 mL aliquots of TSB that were then incubated at 37° C. with shaking at 220 rpm. In parallel, the compounds to be assessed were serially diluted with Mueller-Hinton broth (MHB) in polypropylene 96-well plates (50 μL in each well). Once the OD600 of the bacterial suspensions reached 0.5, the bacteria were diluted with MHB (final concentration 2×10^5 CFU mL^−1) and added to the microplates containing the test compounds (50 μL to each well, final volume: 100 μL). The well-plates were sealed with an adhesive membrane and after 16 hours of incubation at 37° C. with shaking at 220 rpm the wells were visually inspected for bacterial growth. MIC values were defined as the lowest concentration of the compound that prevented visible growth of bacteria.

Minimum inhibitory concentration (MIC) | SMILES
1 to 2 µg/mL | CC[C@H](C)[C@@H]1NC(=O)[C@@H](NC(=O)[C@H](Cc2c[nH]c3ccccc23)NC(=O)[C@@H](CCCN)NC(=O)CNC(=O)[C@H](CCCN)NC(=O)[C@@H](CCCN)NC(=O)[C@@H](Cc2c[nH]c3ccccc23)NC(=O)[C@@H](Cc2ccc(O)cc2)NC(=O)[C@@H](CO)NC(=O)CCCCCC(C)C)[C@@H](C)OC(=O)[C@H](C)NC(=O)[C@@H](CO)NC(=O)CNC1=O [Compound R10] ({Octanoyl(7-Me)}-[dS][dY][dW][dOrn][Orn]G[dOrn]WTIG[dS]A; ester 9-C; N-terminus assumed)
2 to 4 µg/mL | CC[C@H](C)[C@@H]1NC(=O)[C@@H](NC(=O)[C@H](Cc2c[nH]c3ccccc23)NC(=O)[C@@H](CCCN)NC(=O)CNC(=O)[C@H](CCCN)NC(=O)[C@@H](CCCN)NC(=O)[C@@H](Cc2c[nH]c3ccccc23)NC(=O)[C@@H](Cc2ccc(O)cc2)NC(=O)[C@@H](CO)NC(=O)CCCCCC(C)C)[C@@H](C)OC(=O)CNC(=O)[C@@H](CO)NC(=O)CNC1=O [Compound R4] ({Octanoyl(7-Me)}-[dS][dY][dW][dOrn][Orn]G[dOrn]WTIG[dS]G; ester 9-C; N-terminus assumed)
4 µg/mL (≈ 2.45 µM) | CC[C@H](C)[C@H](NC(=O)[C@@H](NC(=O)[C@H](Cc1c[nH]c2ccccc12)NC(=O)[C@@H](CCCN)NC(=O)CNC(=O)[C@H](CCCN)NC(=O)[C@@H](CCCN)NC(=O)[C@@H](Cc1c[nH]c2ccccc12)NC(=O)[C@@H](Cc1ccc(O)cc1)NC(=O)[C@@H](CO)NC(=O)CCCCCC(C)C)[C@@H](C)O)C(=O)N[C@@H](CC(N)=O)C(=O)N[C@@H](C)C(=O)NCC(N)=O [Ala12 (Gly→Ala), FA-sywoOGoWTINAG-CONH2] ({Octanoyl(7-Me)}-[dS][dY][dW][dOrn][Orn]G[dOrn]WTINAG-NH2)
2 to 4 µg/mL | C[C@@H](N=[N+]=[N-])[C@H](N)C(=O)O [(2S,3R)-2-amino-3-azidobutanoic acid]
4 µg/mL (≈ 2.45 µM) | CC[C@H](C)[C@H](NC(=O)[C@H](CC(N)=O)NC(=O)[C@H](Cc1c[nH]c2ccccc12)NC(=O)[C@@H](CCCN)NC(=O)CNC(=O)[C@H](CCCN)NC(=O)[C@@H](CCCN)NC(=O)[C@@H](Cc1c[nH]c2ccccc12)NC(=O)[C@@H](Cc1ccc(O)cc1)NC(=O)[C@@H](CO)NC(=O)CCCCCC(C)C)C(=O)N[C@@H](CC(N)=O)C(=O)NCC(=O)NCC(N)=O [Asn9-CONH2] ({Octanoyl(7-Me)}-[dS][dY][dW][dOrn][Orn]G[dOrn]WNINGG-NH2)
32 µg/mL (≈ 20.3 µM) | CC[C@H](C)[C@H](NC(=O)[C@@H](NC(=O)[C@H](Cc1c[nH]c2ccccc12)NC(=O)[C@@H](CCCN)NC(=O)CNC(=O)[C@H](C)NC(=O)[C@@H](CCCN)NC(=O)[C@@H](Cc1c[nH]c2ccccc12)NC(=O)[C@@H](Cc1ccc(O)cc1)NC(=O)[C@@H](CO)NC(=O)CCCCCC(C)C)[C@@H](C)O)C(=O)N[C@@H](CC(N)=O)C(=O)NCC(=O)NCC(N)=O [Ala5 (Orn→Ala), FA-sywoAGoWTINGG-CONH2] ({Octanoyl(7-Me)}-[dS][dY][dW][dOrn]AG[dOrn]WTINGG-NH2)
1 to 2 µg/mL | CC[C@H](C)[C@@H]1NC(=O)[C@@H](NC(=O)[C@H](Cc2c[nH]c3ccccc23)NC(=O)[C@@H](CCCN)NC(=O)CNC(=O)[C@H](CCCN)NC(=O)[C@@H](CCCN)NC(=O)[C@@H](Cc2c[nH]c3ccccc23)NC(=O)[C@@H](Cc2ccc(O)cc2)NC(=O)[C@@H](CO)NC(=O)CCCCCC(C)C)[C@@H](C)OC(=O)[C@@H](C)NC(=O)[C@@H](CO)NC(=O)CNC1=O [Compound R12] ({Octanoyl(7-Me)}-[dS][dY][dW][dOrn][Orn]G[dOrn]WTIG[dS][dA]; ester 9-C; N-terminus assumed)
2 µg/mL (≈ 1.26 µM) | CC[C@H](C)[C@H](NC(=O)[C@H](C)NC(=O)[C@H](Cc1c[nH]c2ccccc12)NC(=O)[C@@H](CCCN)NC(=O)CNC(=O)[C@H](CCCN)NC(=O)[C@@H](CCCN)NC(=O)[C@@H](Cc1c[nH]c2ccccc12)NC(=O)[C@@H](Cc1ccc(O)cc1)NC(=O)[C@@H](CO)NC(=O)CCCCCC(C)C)C(=O)N[C@@H](CC(N)=O)C(=O)NCC(=O)NCC(N)=O [Ala9 (Thr→Ala), FA-sywoOGoWAINGG-CONH2] ({Octanoyl(7-Me)}-[dS][dY][dW][dOrn][Orn]G[dOrn]WAINGG-NH2)
16 µg/mL (≈ 12.5 µM) | CC(C)CCCCCC(=O)N[C@H](CO)C(=O)N[C@H](Cc1ccc(O)cc1)C(=O)N[C@H](Cc1c[nH]c2ccccc12)C(=O)N[C@H](CCCN)C(=O)N[C@@H](CCCN)C(=O)NCC(=O)N[C@H](CCCN)C(=O)N[C@@H](Cc1c[nH]c2ccccc12)C(=O)N[C@H](C(N)=O)[C@@H](C)O [ΔI10-G13, FA-sywoOGoWT-CONH2] ({Octanoyl(7-Me)}-[dS][dY][dW][dOrn][Orn]G[dOrn]WT-NH2)
2 to 4 µg/mL | CC[C@H](C)[C@H](NC(=O)[C@@H](NC(=O)[C@H](Cc1c[nH]c2ccccc12)NC(=O)[C@@H](CCCN)NC(=O)CNC(=O)[C@H](CCCN)NC(=O)[C@@H](CCCN)NC(=O)[C@@H](Cc1c[nH]c2ccccc12)NC(=O)[C@@H](Cc1ccc(O)cc1)NC(=O)[C@@H](CO)NC(=O)CCCCCC(C)C)[C@@H](C)O)C(=O)N[C@@H](CC(N)=O)C(=O)NCC(=O)NCC(N)=O [Thr9-CONH2] ({Octanoyl(7-Me)}-[dS][dY][dW][dOrn][Orn]G[dOrn]WTINGG-NH2)
1 to 2 µg/mL | CCC(C)CCC(=O)N[C@H](CO)C(=O)N[C@H](Cc1ccc(O)cc1)C(=O)N[C@H](Cc1c[nH]c2ccccc12)C(=O)N[C@H](CCCN)C(=O)N[C@@H](CCCN)C(=O)NCC(=O)N[C@H](CCCN)C(=O)N[C@@H](Cc1c[nH]c2ccccc12)C(=O)N[C@@H]1C(=O)N[C@@H]([C@@H](C)CC)C(=O)NCC(=O)N[C@H](CO)C(=O)N[C@H](C)C(=O)O[C@@H]1C (stereo partly shown) [Compound R8] ({Hexanoyl(4ξ-Me)}-[dS][dY][dW][dOrn][Orn]G[dOrn]WTIG[dS][dA]; ester 9-C; N-terminus assumed)
2 µg/mL (≈ 1.28 µM) | CC[C@H](C)[C@H](NC(=O)[C@@H](NC(=O)[C@H](Cc1c[nH]c2ccccc12)NC(=O)[C@@H](CCCN)NC(=O)CNC(=O)[C@H](CCCN)NC(=O)[C@@H](CCCN)NC(=O)[C@@H](Cc1c[nH]c2ccccc12)NC(=O)[C@@H](Cc1ccc(O)cc1)NC(=O)[C@@H](CO)NC(=O)CCCCCC(C)C)[C@@H](C)O)C(=O)N[C@@H](CC(N)=O)C(=O)NCC(N)=O [ΔG13, FA-sywoOGoWTING-CONH2] ({Octanoyl(7-Me)}-[dS][dY][dW][dOrn][Orn]G[dOrn]WTING-NH2)
1 µg/mL (≈ 0.639 µM) | CCC(C)CCC(=O)N[C@H](CO)C(=O)N[C@H](Cc1ccc(O)cc1)C(=O)N[C@H](Cc1c[nH]c2ccccc12)C(=O)N[C@H](CCCN)C(=O)N[C@@H](CCCN)C(=O)NCC(=O)N[C@H](CCCN)C(=O)N[C@@H](Cc1c[nH]c2ccccc12)C(=O)N[C@@H]1C(=O)N[C@@H]([C@@H](C)CC)C(=O)NCC(=O)N[C@@H](CO)C(=O)N[C@H](C)C(=O)O[C@@H]1C (stereo partly shown) [Compound R7] ({Hexanoyl(4ξ-Me)}-[dS][dY][dW][dOrn][Orn]G[dOrn]WTIGS[dA]; ester 9-C; N-terminus assumed)
>64 µg/mL | CC[C@H](C)[C@H](NC(=O)[C@@H](NC(=O)[C@H](Cc1c[nH]c2ccccc12)NC(=O)[C@@H](C)NC(=O)CNC(=O)[C@H](CCCN)NC(=O)[C@@H](CCCN)NC(=O)[C@@H](Cc1c[nH]c2ccccc12)NC(=O)[C@@H](Cc1ccc(O)cc1)NC(=O)[C@@H](CO)NC(=O)CCCCCC(C)C)[C@@H](C)O)C(=O)N[C@@H](CC(N)=O)C(=O)NCC(=O)NCC(N)=O [Ala7 (D-Orn→D-Ala), FA-sywoOGaWTINGG-CONH2] ({Octanoyl(7-Me)}-[dS][dY][dW][dOrn][Orn]G[dA]WTINGG-NH2)
2 µg/mL (≈ 1.21 µM) | CC[C@H](C)[C@H](NC(=O)[C@@H](NC(=O)[C@H](Cc1c[nH]c2ccccc12)NC(=O)[C@@H](CCCN)NC(=O)CNC(=O)[C@H](CCCN)NC(=O)[C@@H](CCCN)NC(=O)[C@@H](Cc1c[nH]c2ccccc12)NC(=O)[C@@H](Cc1ccc(O)cc1)NC(=O)[C@@H](CO)NC(=O)CCCCCC(C)C)[C@@H](C)N=[N+]=[N-])C(=O)N[C@@H](CC(N)=O)C(=O)NCC(=O)NCC(N)=O [MeDap(N3)9-CONH2] ({Octanoyl(7-Me)}-[dS][dY][dW][dOrn][Orn]G[dOrn]W[X1]INGG-NH2)
16 µg/mL (≈ 10.6 µM) | CC[C@H](C)[C@H](NC(=O)[C@@H](NC(=O)[C@H](Cc1c[nH]c2ccccc12)NC(=O)[C@@H](CCCN)NC(=O)CNC(=O)[C@H](CCCN)NC(=O)[C@@H](CCCN)NC(=O)[C@@H](C)NC(=O)[C@@H](Cc1ccc(O)cc1)NC(=O)[C@@H](CO)NC(=O)CCCCCC(C)C)[C@@H](C)O)C(=O)N[C@@H](CC(N)=O)C(=O)NCC(=O)NCC(N)=O [Ala3 (D-Trp→D-Ala), FA-syaoOGoWTINGG-CONH2] ({Octanoyl(7-Me)}-[dS][dY][dA][dOrn][Orn]G[dOrn]WTINGG-NH2)
